Results on 2 compounds are retold here after patent US6130250A, “Veterinary use of a pleuromutilin derivative” (priority 1996, dated 2000).

The test system of one test is coccidia. To be noted: fowl; cited from earlier work.
For test [1] the following is noted: hen; cited from earlier work.
For test [2] the following is noted: pig; cited from earlier work.
In another test the test system is M. hyopneumoniae. In words: MIC, microtitre broth, ten field isolates and type strain J of M. hyopneumoniae. It counts as cell-based, Mycoplasma hyopneumoniae. An excerpt:
Tissue samples are obtained from the lungs of pigs from various enzootic pneumonia of pigs (EPP)-affected herds. Samples are shipped on dry ice for culture. M. hyopneumoniae is recovered from freshly sectioned lung tissue by direct culture onto Mycoplasma Experience agar. This technique allows the distinctive colonies of M. hyopneumoniae to be recognised and readily separated, by cloning from other faster growing mycoplasma species such as Mycoplasma hyorhinis, often present in EPP lung samples. Isolates are subcultured and identified by disc growth inhibition using specific rabbit antiserum raised to M. hyopneumoniae NCTC 10110.
Cultures for antibiotic challenge are prepared in Mycoplasma Experience broth, incubated aerobically at 36° C.
A commercially available solid medium (Mycoplasma Experience Ltd.) is used to isolate M. hyopneumoniae from lung tissue. A liquid medium (Mycoplasma Experience Ltd.) containing phenol red and glucose (pH 7.6) is used for the MIC assays.
(§1) Stock solutions of test compound are prepared at 1 mg/ml concentration in deionised water, sterilised by filtration through 0.2μ pore size membrane filters (Sartorius Minisart, N) and stored at -20° C. For use in the MIC tests the stock solutions are diluted in liquid medium to double the final concentrations required. MIC tests are carried out according to the method of Tanner & Wu, Avian Diseases 36 (1992) 714-717. Actively growing challenge cultures are prepared either from 1 ml aliquots of broth cultures stored at -70° C. or from cultures stored on agar at -70° C. The challenge cultures are diluted to give a target titre of 10^3 to 10^5 colour changing units/ml. 0.1 ml aliquots of challenge inocula are mixed with 0.1 ml aliquots of antibiotic dilution in microtitre wells. Each microtitre plate contains uninoculated media at pH 6.8 (M. hyopneumoniae) (end point control) and antibiotic-free inoculated challenge controls. All plates are sealed with adhesive film and incubated aerobically at 36° C. MICs are recorded when the colour change in the challenge control wells match the pH of the end point control. The MIC is the lowest concentration showing no colour change.

The next test concerns Mycoplasma hyosynoviae. In words: MIC assay, 7 field isolates of Mycoplasma hyosynoviae. It counts as cell-based. The note with it: Mycoplasma; 7 field isolates. The method, then: Tissue samples are obtained from the lungs of pigs from various enzootic pneumonia of pigs (EPP)--affected herds. Samples are shipped on dry ice for culture. Four isolates from lung samples initially isolated for recovery of Mycoplasma hyopneumoniae were reisolated for Mycoplasma hyosynoviae after it had been noted from the lung samples submitted (re-stored at -70° C.), during culture for M. hyopneumoniae, that some samples yielded luxuriant growth of colonies having the typical morphology of Mycoplasma hyosynoviae. Three further isolates were recovered from other lung samples provided. All isolates were serologically identified by disc growth inhibition with specific rabbit antiserum raised against Mycoplasma hyosynoviae. A commerically available solid medium (Mycoplasma Experience Ltd.) is used to isolate M. hyosynoviae from lung tissue. A liquid medium (Mycoplasma Experience Ltd.) containing phenol red and arginine (pH 7.0) is used for the MIC assay.
as §1, with “and” for “&”, “7.6” for “6.8 (M. hyopneumoniae)”, “matches” for “match”

Setting [3] is: Mesomycoplasma hyopneumoniae, field strains (n = 10).

≈ marks a conversion by molar mass, not a printed value. Like-named read-outs stand apart in the source and are kept apart here.

On to `C=C[C@]1(C)C[C@@H](OC(=O)CSC(C)(C)CNC(=O)[C@H](N)C(C)C)[C@]2(C)[C@H](C)CC[C@]3(CCC(=O)[C@H]32)[C@@H](C)[C@@H]1O` [compound of formula I, 14-O-[1-[(R)-2-amino-3-methylbutyrylamino]-2-methylpropan-2-ylthioacetyl]mutilin], for which the “dosage showing activity against coccidia” value in the test with coccidia is reported as 20-150 mg/kg of feed. Also, the “dosage showing growth-promoting activity” value in test [1] and in test [2] was 10-50 mg/kg of feed each time.
For `CCN1CCN(c2cc3c(cc2F)c(=O)c(C(=O)O)cn3C2CC2)CC1` [enrofloxacin], the MIC was 0.025 µg/mL (≈ 0.0696 µM) in the test on M. hyopneumoniae (Mesomycoplasma hyopneumoniae, NCTC10110, Type Strain J (NCTC 10110), read-out: MIC); 0.0025 to 0.025 µg/mL (≈ 0.00696 to 0.0696 µM) in the test with M. hyopneumoniae (Mesomycoplasma hyopneumoniae, field strains (n = 10), read-out: MIC range); 0.025 to 0.25 µg/mL (≈ 0.0696 to 0.696 µM) with Mycoplasma hyosynoviae. The compound further yielded an MIC50 in the test with M. hyopneumoniae (setting [3]) of 0.005 µg/mL (≈ 0.0139 µM). In the test on M. hyopneumoniae (setting [3]), this compound yielded an MIC90 of 0.01 µg/mL (≈ 0.0278 µM). In addition, the “susceptibility of field isolates” value in the test with M. hyopneumoniae (field isolates) was “very good sensitivity”.

What is called MIC is the smallest concentration in the dilution series that meets the test's criterion for growth inhibition. Usually MIC50 stands for the lowest concentration that inhibits either 50% of growth or 50% of the strains tested, depending on the study. The low end stands for greater potency, the high end for weaker potency. Usually MIC90 stands for the lowest concentration that inhibits either 90% of growth or 90% of the strains tested, depending on the study. Read a low MIC90 as greater potency.
